Results as given in patent publication US20160075991A1, “Process for Preparing Starter Cultures of Lactic Acid Bacteria” (INSTITUT NATIONAL DE LA RECHERCHE, priority 1998, published 2016).

What was measured:
[1] = system: Lactococcus lactis subsp. cremoris strain MG1363; assay: Survival of the lactic acid bacteria during storage at 4° C. (Example 3); format: cell-based; details: for Number of cells per ml: porphyrin compound and aeration, 1% glucose M17, storage at 4° C.
Experimental: (§1) A laboratory medium, i.e. M17 supplemented with 1% of glucose, is inoculated with Lactococcus lactis subsp. cremoris strain MG1363 in the form of a 1/1000 dilution of a saturated culture. The cultures are then divided into two equal parts, and hemin is added to one of these two cultures to give a final concentration of 10 μg/ml. […] Aliquots of the two cultures are removed regularly during the exponential growth phase in order to monitor viability, rate of growth and pH. After 24 h of growth, the cultures are placed (stored) in a 30° C. incubator without shaking, and aliquots are removed every 24 h in order to monitor the viability of the cells. The Lactococcus lactis subsp. cremoris strain MG1363 was cultured as in the experiment described in Example 2, but the storage, which is carried out 24 h after inoculation, is at 4° C. instead of at 30° C.

[2] = system: Lactococcus lactis subsp. cremoris strain MG1363; assay: Survival of the lactic acid bacteria during storage at 30° C. (Example 2); format: cell-based; details: for Number of viable cells: hemin 10 μg/ml and aeration, 1% glucose M17
Experimental: as §1, with “cells.” for “cells. The Lactococcus lactis subsp. cremoris strain MG1363 was cultured as in the experiment described in Example 2, but the storage, which is carried out 24 h after inoculation, is at 4° C. instead of at 30° C.”

[3] = system: IL582; assay: Culture with hemin and agitation, different strains (Example 4); format: cell-based, L. lactis; details: strain IL582, hemin 10 μg/ml and agitation, M17 1% glucose, 24 h
Experimental: (§2) Bacteria [MG1363 and 7 strains (IL1403, IL582, IL801, IL896, Z105, Z106, Z191) representative of L. lactis subgroups [TAILLEZ et al., System. Appl. Microbiol., 21, 530-538, (1998)] are cultured in M17 medium (1% glucose) inoculated (1/1000 dilution) with a saturated starter culture previously grown at 30° C. for 24 h. Hemin at a final concentration of 10 μg/ml is added to the inoculated medium before aerating the cultures by shaking (minimum 220 rpm). Control cultures are grown in parallel with no hemin in the medium, and no shaking. […]

[4] = system: MG1363; assay: as above; format: cell-based, L. lactis; details: strain MG1363, hemin 10 μg/ml and agitation, M17 1% glucose, 24 h
Experimental: as §2

[5] = system: IL896; assay: as above; format: cell-based, L. lactis; details: strain IL896, hemin 10 μg/ml and agitation, M17 1% glucose, 24 h
Experimental: as §2

[6] = system: IL1403; assay: as above; format: cell-based, L. lactis; details: strain IL1403, hemin 10 μg/ml and agitation, M17 1% glucose, 24 h
Experimental: as §2

[7] = system: Lactococcus lactis subsp. cremoris strain MG1363; assay: Culturing in the presence of hemin with aeration (Example 1.1); format: cell-based; details: for pH: final pH of medium; for pH / OD600 nm / Viable bacterial count / Concentration of lactic acid: hemin 10 μg/ml, aeration, 24 h
Experimental: A laboratory medium (M17 supplemented with glucose in amounts, as indicated in the Table I, lactose being also usable) is inoculated with the Lactococcus lactic subsp. cremoris strain MG1363 in the form of a 1/100 or 1/1000 dilution of a saturated culture (prepared at 30° C. with no shaking). The inoculated medium contained or not hemin at a final concentration of 10 μg/ml (a 0.5 mg/ml stock solution is prepared by dissolving 100 mg of hemin in 2 ml of 5N NaOH, to which 198 ml of water is then added; the solution is autoclaved at 120° C. for 20 minutes). For bacteria grown in medium containing hemin, cultures were maintained at 30° C. with shaking (250 rotations per minute) in order to ensure oxygenation. Control cultures, without addition of hemin and without shaking, were grown at 30° C. in parallel. After 24 h of growth, aliquots are removed to measure the optical density at 600 nm (OD600 nm), the number of viable bacteria, the final pH and the concentration of lactic acid in the medium.

[8] = glucose 5 g/l, dilution factor 100
[9] = glucose 5 g/l, dilution factor 1000
[10] = glucose 6 g/l, dilution factor 100
[11] = glucose 6 g/l, dilution factor 1000
[12] = glucose 7 g/l, dilution factor 100
[13] = glucose 7 g/l, dilution factor 1000
[14] = glucose 8 g/l, dilution factor 100
[15] = glucose 8 g/l, dilution factor 1000
[16] = glucose 9 g/l, dilution factor 100
[17] = glucose 9 g/l, dilution factor 1000
[18] = glucose 10 g/l, dilution factor 100
[19] = glucose 10 g/l, dilution factor 1000

C=CC1=C(C)c2cc3[n-]c(cc4nc(cc5[n-]c(cc1n2)c(C)c5C=C)C(C)=C4CCC(=O)O)c(CCC(=O)O)c3C.[Cl-].[Fe+3] [hemin]
survival rate ([1]; after 2 months at 4° C., cultured with porphyrin compound under aeration): ~5% | Number of cells per ml ([1]; 0 days after culture): 4.3 × 10^9 cells per ml | Number of cells per ml ([1]; 1 day after culture): 4.2 × 10^9 cells per ml | Number of cells per ml ([1]; 2 days after culture): 3.8 × 10^9 cells per ml | Number of cells per ml ([1]; 3 days after culture): 3.8 × 10^9 cells per ml | Number of cells per ml ([1]; 7 days after culture): 4.2 × 10^9 cells per ml | Number of cells per ml ([1]; 8 days after culture): 2.8 × 10^9 cells per ml | Number of cells per ml ([1]; 9 days after culture): 2.2 × 10^9 cells per ml | Number of cells per ml ([1]; 10 days after culture): 9.6 × 10^8 cells per ml | Number of cells per ml ([1]; 13 days after culture): 5.0 × 10^8 cells per ml | Number of cells per ml ([1]; 15 days after culture): 3.2 × 10^8 cells per ml | Number of cells per ml ([1]; 22 days after culture): 3.0 × 10^8 cells per ml | Number of cells per ml ([1]; 28 days after culture): 3.0 × 10^8 cells per ml | Number of cells per ml ([1]; 36 days after culture): 2.9 × 10^8 cells per ml | Number of cells per ml ([1]; 43 days after culture): 2.2 × 10^8 cells per ml | Number of cells per ml ([1]; 50 days after culture): 1.8 × 10^8 cells per ml | Number of cells per ml ([1]; 57 days after culture): 2.0 × 10^8 cells per ml | viability after one day of storage ([2]; 2 days after inoculation, storage at 30° C., hemin and oxygen): do not lose any viability | rate of survival ([2]; after 5 days of storage at 30° C., grown with aeration and hemin): approximately 10^−2 | Number of viable cells ([2]; 0 days after inoculation): 1 × 10^6 | Number of viable cells ([2]; 1 day after inoculation): 1.76 × 10^10 | Number of viable cells ([2]; 2 days after inoculation, stored at 30° C.): 1.71 × 10^10 | Number of viable cells ([2]; 3 days after inoculation, stored at 30° C.): 5.32 × 10^9 | Number of viable cells ([2]; 5 days after inoculation, stored at 30° C.): 4.3 × 10^8 | Number of viable cells ([2]; 6 days after inoculation, stored at 30° C.): 8.5 × 10^7 | pH ([3]; final pH): 5.73 | OD500 nm [3]: 5.1 | pH ([4]; final pH): 5.86 | OD500 nm [4]: 5 | pH ([5]; final pH): 5.24 | OD500 nm [5]: 4.5 | pH ([6]; final pH): 5.41 | OD500 nm [6]: 5.3 | production of lactic acid as share of the quantity of sugar added ([7]; cells cultured in the presence of hemin and oxygen): less than 10% | pH [7, 8]: 6.2 | pH [7, 9]: 6.19 | pH [7, 10]: 6.25 | pH [7, 11]: 6.13 | pH [7, 12]: 6.09 | pH [7, 13]: 6.07 | pH [7, 14]: 6.04 | pH [7, 15]: 6.03 | pH [7, 16]: 6.02 | pH [7, 17]: 6.01 | pH [7, 18]: 6.01 | pH [7, 19]: 5.99 | OD600 nm [7, 8]: 4.6 | Viable bacterial count [7, 8]: 5.7 ×10^9 | Concentration of lactic acid [7, 9]: 0.12 g/L | OD600 nm [7, 9]: 4.5 | Viable bacterial count [7, 9]: 5.7 ×10^9 | OD600 nm [7, 10]: 5.1 | Viable bacterial count [7, 10]: 6 ×10^9 | Concentration of lactic acid [7, 11]: 0.14 g/L | OD600 nm [7, 11]: 5.5 | Viable bacterial count [7, 11]: 7.6 ×10^9 | OD600 nm [7, 12]: 5.6 | Viable bacterial count [7, 12]: 9.1 ×10^9 | Concentration of lactic acid [7, 13]: 0.19 g/L | OD600 nm [7, 13]: 5.7 | Viable bacterial count [7, 13]: 8.6 ×10^9 | OD600 nm [7, 14]: 5.9 | Viable bacterial count [7, 14]: 8.9 ×10^9 | Concentration of lactic acid [7, 15]: 0.35 g/L | OD600 nm [7, 15]: 5.4 | Viable bacterial count [7, 15]: 9.3 ×10^9 | OD600 nm [7, 16]: 5.9 | Viable bacterial count [7, 16]: 9.2 ×10^9 | Concentration of lactic acid [7, 17]: 0.52 g/L | OD600 nm [7, 17]: 5.8 | Viable bacterial count [7, 17]: 9.4 ×10^9 | OD600 nm [7, 18]: 6.1 | Viable bacterial count [7, 18]: 10.1 ×10^9 | Concentration of lactic acid [7, 19]: 0.98 g/L | OD600 nm [7, 19]: 6.2 | Viable bacterial count [7, 19]: 9.6 ×10^9 | pH of the culture (remains stable) ([7]; hemin and oxygen, whatever the concentration of glucose): approximately 6.1
